How the values were obtained:
Assay in all cases: KINOMEscan competition binding
Details in all cases: compound 10.0 µM
MAP2K2 (human) = MAP2K2 (human) (UniProt P36507)
RPS6KB1 (human) = RPS6KB1 (human) (UniProt P23443)
AURKB (human) = AURKB (human) (UniProt Q96GD4)
MAPK1 (human) = MAPK1 (human) (UniProt P28482)
MELK (human) = MELK (human) (UniProt Q14680)
DDR2 (human) = DDR2 (human) (UniProt Q16832)
MAK (human) = MAK (human) (UniProt P20794)
ERBB4 (human) = ERBB4 (human) (UniProt Q15303)
MAP3K10 (human) = MAP3K10 (human) (UniProt Q02779)
[1] = target: JAK1 JH2 pseudokinase (human) (UniProt P23458)
RIPK4 (human) = RIPK4 (human) (UniProt P57078)
PRKD2 (human) = PRKD2 (human) (UniProt Q9BZL6)
STK32C (human) = STK32C (human) (UniProt Q86UX6)
DAPK2 (human) = DAPK2 (human) (UniProt Q9UIK4)
EPHB3 (human) = EPHB3 (human) (UniProt P54753)
SRPK3 (human) = SRPK3 (human) (UniProt Q9UPE1)
EGFR (human) = EGFR (human) (UniProt P00533)
[2] = system: PIK3CA (human), P42336 [H1047L]
SNRK (human) = SNRK (human) (UniProt Q9NRH2)
CDK5 (human) = CDK5 (human) (UniProt Q00535)
MAP3K9 (human) = MAP3K9 (human) (UniProt P80192)
PRKD3 (human) = PRKD3 (human) (UniProt O94806)
EPHB2 (human) = EPHB2 (human) (UniProt P29323)
RPS6KA6 KD2 (human) = RPS6KA6 KD2 (human) (UniProt Q9UK32)
PLK2 (human) = PLK2 (human) (UniProt Q9NYY3)
ERBB2 (human) = ERBB2 (human) (UniProt P04626)
CDC2L2 (human) = CDC2L2 (human) (UniProt Q9UQ88)
[3] = target: JAK2 JH1 catalytic (human) (UniProt O60674)
FLT4 (human) = FLT4 (human) (UniProt P35916)
CDK19 (human) = CDK19 (human) (UniProt Q9BWU1)
RPS6KA1 KD2 (human) = RPS6KA1 KD2 (human) (UniProt Q15418)
PIK3C2G (human) = PIK3C2G (human) (UniProt O75747)
DSTYK (human) = DSTYK (human) (UniProt Q6XUX3)
MET (human) = MET (human) (UniProt P08581)
[4] = system: KIT (human), P10721 [D816H]
DCLK3 (human) = DCLK3 (human) (UniProt Q9C098)
MAP4K3 (human) = MAP4K3 (human) (UniProt Q8IVH8)
NEK9 (human) = NEK9 (human) (UniProt Q8TD19)
MAP3K13 (human) = MAP3K13 (human) (UniProt O43283)
FGFR4 (human) = FGFR4 (human) (UniProt P22455)

Chain of ERBB2 (human) (P04626 whole entry, looked up): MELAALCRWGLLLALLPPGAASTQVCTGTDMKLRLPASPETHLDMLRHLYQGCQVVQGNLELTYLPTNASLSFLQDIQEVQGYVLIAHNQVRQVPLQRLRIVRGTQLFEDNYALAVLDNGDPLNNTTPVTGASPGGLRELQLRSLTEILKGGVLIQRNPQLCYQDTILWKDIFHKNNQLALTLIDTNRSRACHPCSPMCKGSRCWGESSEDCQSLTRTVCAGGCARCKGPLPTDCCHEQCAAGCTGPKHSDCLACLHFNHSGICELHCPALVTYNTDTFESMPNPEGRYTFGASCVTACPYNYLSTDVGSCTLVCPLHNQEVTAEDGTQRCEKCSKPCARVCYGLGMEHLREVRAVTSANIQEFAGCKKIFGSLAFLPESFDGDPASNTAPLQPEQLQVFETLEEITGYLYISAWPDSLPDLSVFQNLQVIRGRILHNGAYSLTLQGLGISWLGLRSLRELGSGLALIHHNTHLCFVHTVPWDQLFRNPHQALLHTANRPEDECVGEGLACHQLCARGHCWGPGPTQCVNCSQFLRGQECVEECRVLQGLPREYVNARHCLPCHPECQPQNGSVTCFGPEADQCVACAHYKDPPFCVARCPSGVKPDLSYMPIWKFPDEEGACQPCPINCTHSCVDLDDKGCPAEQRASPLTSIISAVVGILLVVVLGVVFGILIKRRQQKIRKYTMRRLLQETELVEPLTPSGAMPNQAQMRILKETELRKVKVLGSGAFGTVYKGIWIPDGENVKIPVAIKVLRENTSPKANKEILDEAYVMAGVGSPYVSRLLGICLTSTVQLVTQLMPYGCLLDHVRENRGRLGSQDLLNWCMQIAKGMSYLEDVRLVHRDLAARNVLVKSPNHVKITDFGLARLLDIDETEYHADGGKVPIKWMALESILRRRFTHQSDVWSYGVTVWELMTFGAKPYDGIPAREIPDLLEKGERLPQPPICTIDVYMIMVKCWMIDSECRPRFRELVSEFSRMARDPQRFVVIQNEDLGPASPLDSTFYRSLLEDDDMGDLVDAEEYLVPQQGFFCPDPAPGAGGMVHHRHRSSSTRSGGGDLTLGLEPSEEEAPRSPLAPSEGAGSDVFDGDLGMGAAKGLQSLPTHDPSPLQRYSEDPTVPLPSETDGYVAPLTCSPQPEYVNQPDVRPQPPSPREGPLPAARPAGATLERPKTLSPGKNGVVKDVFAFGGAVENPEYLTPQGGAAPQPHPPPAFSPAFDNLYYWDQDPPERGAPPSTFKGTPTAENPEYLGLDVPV
Chain of CDK19 (human) (Q9BWU1 whole entry, looked up): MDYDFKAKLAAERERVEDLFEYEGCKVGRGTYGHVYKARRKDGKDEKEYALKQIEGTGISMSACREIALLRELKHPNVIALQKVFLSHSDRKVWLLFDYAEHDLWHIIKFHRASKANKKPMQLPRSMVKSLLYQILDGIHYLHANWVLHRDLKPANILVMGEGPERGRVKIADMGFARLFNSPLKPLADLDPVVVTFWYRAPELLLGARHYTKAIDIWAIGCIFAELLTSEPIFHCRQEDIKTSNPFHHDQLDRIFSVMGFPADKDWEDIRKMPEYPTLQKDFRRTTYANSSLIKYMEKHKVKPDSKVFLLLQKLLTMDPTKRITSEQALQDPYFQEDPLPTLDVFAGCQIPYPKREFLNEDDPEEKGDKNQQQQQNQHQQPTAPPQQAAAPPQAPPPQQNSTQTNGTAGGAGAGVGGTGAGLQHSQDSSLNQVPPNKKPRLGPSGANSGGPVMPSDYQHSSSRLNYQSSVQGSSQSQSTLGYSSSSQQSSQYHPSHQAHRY
Chain of JAK2 JH1 catalytic (human) (O60674 whole entry, looked up): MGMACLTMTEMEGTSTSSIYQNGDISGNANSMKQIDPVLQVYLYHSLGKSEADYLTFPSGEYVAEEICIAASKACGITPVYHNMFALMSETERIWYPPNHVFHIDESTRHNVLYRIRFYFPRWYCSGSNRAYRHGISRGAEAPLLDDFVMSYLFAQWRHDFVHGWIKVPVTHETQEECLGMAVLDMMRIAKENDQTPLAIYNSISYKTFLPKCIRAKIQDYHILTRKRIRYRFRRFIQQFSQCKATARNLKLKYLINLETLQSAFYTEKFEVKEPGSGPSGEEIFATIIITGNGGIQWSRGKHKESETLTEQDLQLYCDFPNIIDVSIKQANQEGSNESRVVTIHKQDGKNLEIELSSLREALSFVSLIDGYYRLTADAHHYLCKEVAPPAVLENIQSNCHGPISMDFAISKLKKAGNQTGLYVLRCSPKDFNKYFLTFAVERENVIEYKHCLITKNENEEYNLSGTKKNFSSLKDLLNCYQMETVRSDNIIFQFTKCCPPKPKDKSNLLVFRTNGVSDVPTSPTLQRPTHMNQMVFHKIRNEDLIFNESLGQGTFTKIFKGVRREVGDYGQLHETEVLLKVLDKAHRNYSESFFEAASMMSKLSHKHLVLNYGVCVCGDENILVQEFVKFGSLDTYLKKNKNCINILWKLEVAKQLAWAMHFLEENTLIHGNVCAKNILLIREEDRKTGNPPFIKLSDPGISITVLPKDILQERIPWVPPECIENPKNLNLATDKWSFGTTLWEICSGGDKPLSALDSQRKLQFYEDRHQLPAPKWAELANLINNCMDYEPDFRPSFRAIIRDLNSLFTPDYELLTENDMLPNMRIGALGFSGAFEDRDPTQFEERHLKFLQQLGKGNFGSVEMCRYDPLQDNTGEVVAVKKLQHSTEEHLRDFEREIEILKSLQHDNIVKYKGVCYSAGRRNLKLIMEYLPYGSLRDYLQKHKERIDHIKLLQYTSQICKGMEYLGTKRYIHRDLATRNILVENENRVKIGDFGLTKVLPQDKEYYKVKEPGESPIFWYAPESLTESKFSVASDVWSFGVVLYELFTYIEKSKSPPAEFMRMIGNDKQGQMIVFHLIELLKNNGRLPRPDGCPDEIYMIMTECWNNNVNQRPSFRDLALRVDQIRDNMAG
Chain of DCLK3 (human) (Q9C098 whole entry, looked up): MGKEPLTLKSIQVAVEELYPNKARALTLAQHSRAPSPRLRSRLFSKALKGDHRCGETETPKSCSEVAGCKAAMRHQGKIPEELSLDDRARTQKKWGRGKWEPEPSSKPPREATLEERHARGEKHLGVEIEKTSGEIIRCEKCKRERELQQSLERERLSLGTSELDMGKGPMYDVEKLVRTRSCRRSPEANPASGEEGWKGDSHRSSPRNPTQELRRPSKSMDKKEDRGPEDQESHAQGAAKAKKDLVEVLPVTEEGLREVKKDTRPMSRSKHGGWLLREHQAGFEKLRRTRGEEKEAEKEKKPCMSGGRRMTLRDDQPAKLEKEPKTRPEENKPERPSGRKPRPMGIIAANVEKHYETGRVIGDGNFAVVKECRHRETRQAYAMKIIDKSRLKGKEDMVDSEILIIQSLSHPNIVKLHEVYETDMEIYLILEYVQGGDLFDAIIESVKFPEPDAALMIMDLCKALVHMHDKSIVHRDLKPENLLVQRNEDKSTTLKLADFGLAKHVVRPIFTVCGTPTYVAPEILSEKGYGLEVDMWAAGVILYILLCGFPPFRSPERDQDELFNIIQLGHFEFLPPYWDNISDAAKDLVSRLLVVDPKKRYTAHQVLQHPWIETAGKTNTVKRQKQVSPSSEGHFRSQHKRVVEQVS
Chain of RPS6KA1 KD2 (human) (Q15418 whole entry, looked up): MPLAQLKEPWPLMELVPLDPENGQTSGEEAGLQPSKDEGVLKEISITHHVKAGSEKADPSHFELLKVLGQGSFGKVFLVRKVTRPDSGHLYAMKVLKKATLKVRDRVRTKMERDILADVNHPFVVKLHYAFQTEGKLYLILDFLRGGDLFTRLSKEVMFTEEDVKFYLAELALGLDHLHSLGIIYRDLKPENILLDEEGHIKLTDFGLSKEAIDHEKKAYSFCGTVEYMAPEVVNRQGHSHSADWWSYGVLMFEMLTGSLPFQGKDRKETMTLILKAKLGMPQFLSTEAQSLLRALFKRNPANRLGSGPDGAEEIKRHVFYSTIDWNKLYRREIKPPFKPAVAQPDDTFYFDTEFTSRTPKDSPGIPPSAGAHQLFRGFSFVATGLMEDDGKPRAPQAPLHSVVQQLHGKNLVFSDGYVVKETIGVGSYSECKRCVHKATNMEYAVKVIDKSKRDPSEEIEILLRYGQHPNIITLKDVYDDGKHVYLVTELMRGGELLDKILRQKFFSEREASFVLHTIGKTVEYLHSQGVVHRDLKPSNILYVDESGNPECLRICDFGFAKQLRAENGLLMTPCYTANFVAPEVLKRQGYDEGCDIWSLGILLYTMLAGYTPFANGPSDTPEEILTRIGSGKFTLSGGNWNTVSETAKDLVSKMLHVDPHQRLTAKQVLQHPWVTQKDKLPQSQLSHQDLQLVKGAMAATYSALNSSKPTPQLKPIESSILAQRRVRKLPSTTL
Chain of MAK (human) (P20794 whole entry, looked up): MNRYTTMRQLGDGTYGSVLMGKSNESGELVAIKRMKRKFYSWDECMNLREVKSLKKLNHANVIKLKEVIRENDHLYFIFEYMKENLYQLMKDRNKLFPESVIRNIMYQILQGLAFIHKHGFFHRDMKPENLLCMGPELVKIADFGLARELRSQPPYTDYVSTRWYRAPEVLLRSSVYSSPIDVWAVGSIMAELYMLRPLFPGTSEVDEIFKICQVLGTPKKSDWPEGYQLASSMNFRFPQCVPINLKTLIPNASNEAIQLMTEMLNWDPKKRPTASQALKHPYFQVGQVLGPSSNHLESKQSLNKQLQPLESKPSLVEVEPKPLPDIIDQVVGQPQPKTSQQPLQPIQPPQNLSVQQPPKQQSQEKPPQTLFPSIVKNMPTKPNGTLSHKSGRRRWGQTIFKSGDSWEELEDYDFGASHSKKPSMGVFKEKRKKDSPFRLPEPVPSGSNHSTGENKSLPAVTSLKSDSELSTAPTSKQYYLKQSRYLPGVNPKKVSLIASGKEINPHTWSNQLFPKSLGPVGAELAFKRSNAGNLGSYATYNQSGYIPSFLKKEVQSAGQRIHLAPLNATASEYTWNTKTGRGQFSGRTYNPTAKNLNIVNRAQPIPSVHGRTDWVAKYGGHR

CNC(=O)Nc1ccc(-c2nc(N3CC4CCC(C3)O4)c3cnn(C4CCC5(CC4)OCCO5)c3n2)cc1
kinase still bound, per cent of control (MAP2K2 (human)): 100% | kinase still bound, per cent of control (RPS6KB1 (human)): 100% | kinase still bound, per cent of control (AURKB (human)): 92% | kinase still bound, per cent of control (MAPK1 (human)): 87% | kinase still bound, per cent of control (MELK (human)): 92% | kinase still bound, per cent of control (DDR2 (human)): 100% | kinase still bound, per cent of control (MAK (human)): 100% | kinase still bound, per cent of control (ERBB4 (human)): 100% | kinase still bound, per cent of control (MAP3K10 (human)): 100% | kinase still bound, per cent of control [1]: 83% | kinase still bound, per cent of control (RIPK4 (human)): 98% | kinase still bound, per cent of control (PRKD2 (human)): 100% | kinase still bound, per cent of control (STK32C (human)): 90% | kinase still bound, per cent of control (DAPK2 (human)): 100% | kinase still bound, per cent of control (EPHB3 (human)): 92% | kinase still bound, per cent of control (SRPK3 (human)): 100% | kinase still bound, per cent of control (EGFR (human)): 62% | kinase still bound, per cent of control [2]: 15% | kinase still bound, per cent of control (SNRK (human)): 100% | kinase still bound, per cent of control (CDK5 (human)): 88% | kinase still bound, per cent of control (MAP3K9 (human)): 97% | kinase still bound, per cent of control (PRKD3 (human)): 100% | kinase still bound, per cent of control (EPHB2 (human)): 78% | kinase still bound, per cent of control (RPS6KA6 KD2 (human)): 84% | kinase still bound, per cent of control (PLK2 (human)): 100% | kinase still bound, per cent of control (ERBB2 (human)): 88% | kinase still bound, per cent of control (CDC2L2 (human)): 97% | kinase still bound, per cent of control [3]: 100% | kinase still bound, per cent of control (FLT4 (human)): 88% | kinase still bound, per cent of control (CDK19 (human)): 100% | kinase still bound, per cent of control (RPS6KA1 KD2 (human)): 91% | kinase still bound, per cent of control (PIK3C2G (human)): 22% | kinase still bound, per cent of control (DSTYK (human)): 100% | kinase still bound, per cent of control (MET (human)): 93% | kinase still bound, per cent of control [4]: 86% | kinase still bound, per cent of control (DCLK3 (human)): 100% | kinase still bound, per cent of control (MAP4K3 (human)): 94% | kinase still bound, per cent of control (NEK9 (human)): 100% | kinase still bound, per cent of control (MAP3K13 (human)): 82% | kinase still bound, per cent of control (FGFR4 (human)): 62%

CCCS(=O)(=O)Nc1ccc(F)c(C(=O)c2c[nH]c3ncc(Cl)cc23)c1F
kinase still bound, per cent of control (MAP2K2 (human)): 1% | kinase still bound, per cent of control (RPS6KB1 (human)): 58% | kinase still bound, per cent of control (AURKB (human)): 29% | kinase still bound, per cent of control (MAPK1 (human)): 100% | kinase still bound, per cent of control (MELK (human)): 76% | kinase still bound, per cent of control (DDR2 (human)): 15% | kinase still bound, per cent of control (MAK (human)): 71% | kinase still bound, per cent of control (ERBB4 (human)): 73% | kinase still bound, per cent of control (MAP3K10 (human)): 87% | kinase still bound, per cent of control [1]: 100% | kinase still bound, per cent of control (RIPK4 (human)): 89% | kinase still bound, per cent of control (PRKD2 (human)): 100% | kinase still bound, per cent of control (STK32C (human)): 86% | kinase still bound, per cent of control (DAPK2 (human)): 80% | kinase still bound, per cent of control (EPHB3 (human)): 100% | kinase still bound, per cent of control (SRPK3 (human)): 100% | kinase still bound, per cent of control (EGFR (human)): 76% | kinase still bound, per cent of control [2]: 100% | kinase still bound, per cent of control (SNRK (human)): 100% | kinase still bound, per cent of control (CDK5 (human)): 57% | kinase still bound, per cent of control (MAP3K9 (human)): 94% | kinase still bound, per cent of control (PRKD3 (human)): 100% | kinase still bound, per cent of control (EPHB2 (human)): 100% | kinase still bound, per cent of control (RPS6KA6 KD2 (human)): 98% | kinase still bound, per cent of control (PLK2 (human)): 83% | kinase still bound, per cent of control (ERBB2 (human)): 78% | kinase still bound, per cent of control (CDC2L2 (human)): 95% | kinase still bound, per cent of control [3]: 44% | kinase still bound, per cent of control (FLT4 (human)): 61% | kinase still bound, per cent of control (CDK19 (human)): 0.8% | kinase still bound, per cent of control (RPS6KA1 KD2 (human)): 75% | kinase still bound, per cent of control (PIK3C2G (human)): 55% | kinase still bound, per cent of control (DSTYK (human)): 54% | kinase still bound, per cent of control (MET (human)): 77% | kinase still bound, per cent of control [4]: 93% | kinase still bound, per cent of control (DCLK3 (human)): 26% | kinase still bound, per cent of control (MAP4K3 (human)): 91% | kinase still bound, per cent of control (NEK9 (human)): 66% | kinase still bound, per cent of control (MAP3K13 (human)): 100% | kinase still bound, per cent of control (FGFR4 (human)): 100%

O=c1[nH]c2ccccc2n1C1CCN(Cc2ccc(-c3nc4cc5[nH]cnc5cc4nc3-c3ccccc3)cc2)CC1
kinase still bound, per cent of control (MAP2K2 (human)): 75% | kinase still bound, per cent of control (RPS6KB1 (human)): 84% | kinase still bound, per cent of control (AURKB (human)): 91% | kinase still bound, per cent of control (MAPK1 (human)): 100% | kinase still bound, per cent of control (MELK (human)): 77% | kinase still bound, per cent of control (DDR2 (human)): 76% | kinase still bound, per cent of control (MAK (human)): 100% | kinase still bound, per cent of control (ERBB4 (human)): 66% | kinase still bound, per cent of control (MAP3K10 (human)): 84% | kinase still bound, per cent of control [1]: 79% | kinase still bound, per cent of control (RIPK4 (human)): 87% | kinase still bound, per cent of control (PRKD2 (human)): 95% | kinase still bound, per cent of control (STK32C (human)): 87% | kinase still bound, per cent of control (DAPK2 (human)): 100% | kinase still bound, per cent of control (EPHB3 (human)): 100% | kinase still bound, per cent of control (SRPK3 (human)): 87% | kinase still bound, per cent of control (EGFR (human)): 65% | kinase still bound, per cent of control [2]: 69% | kinase still bound, per cent of control (SNRK (human)): 91% | kinase still bound, per cent of control (CDK5 (human)): 100% | kinase still bound, per cent of control (MAP3K9 (human)): 96% | kinase still bound, per cent of control (PRKD3 (human)): 100% | kinase still bound, per cent of control (EPHB2 (human)): 72% | kinase still bound, per cent of control (RPS6KA6 KD2 (human)): 100% | kinase still bound, per cent of control (PLK2 (human)): 88% | kinase still bound, per cent of control (ERBB2 (human)): 86% | kinase still bound, per cent of control (CDC2L2 (human)): 100% | kinase still bound, per cent of control [3]: 67% | kinase still bound, per cent of control (FLT4 (human)): 100% | kinase still bound, per cent of control (CDK19 (human)): 75% | kinase still bound, per cent of control (RPS6KA1 KD2 (human)): 100% | kinase still bound, per cent of control (PIK3C2G (human)): 75% | kinase still bound, per cent of control (DSTYK (human)): 76% | kinase still bound, per cent of control (MET (human)): 39% | kinase still bound, per cent of control [4]: 100% | kinase still bound, per cent of control (DCLK3 (human)): 91% | kinase still bound, per cent of control (MAP4K3 (human)): 100% | kinase still bound, per cent of control (NEK9 (human)): 88% | kinase still bound, per cent of control (MAP3K13 (human)): 100% | kinase still bound, per cent of control (FGFR4 (human)): 100%
